{
  "source": "patent US12029728B2",
  "about": "“Small molecules with anti-protozoan activity” (New Mexico Tech University Research Park Corporation, priority 2018, dated 2024)",
  "key": {"[1]": {"test_system": "T. cruzi-infected VERO cells", "assay": "Treatment of T. cruzi-infected VERO cells, confocal microscopy", "type": "cell-based, Trypanosoma cruzi", "conditions": "5 μM, 5 days", "experimental": "2×10^4 VERO cells were plated in individual confocal dishes and allowed to adhere for 16 hours at 37° C. […] The T. cruzi-infected dishes were incubated with ˜2×10^6 T. cruzi/mL for 24 hours at 37° C. to allow for internalization of parasites. T. cruzi parasites expressed tdTomato, which allowed for visualization of parasites within cells. After the 24-hour T. cruzi incubation period, extracellular parasites were removed from culture dishes. The cells were washed 3 times with cell culture media (10% fetal bovine serum; 1% penicillin/streptomycin). Designated plates were then incubated with 5 μM Compound 2 or 5 μM Compound 7 for 5 days at 37° C. Cells were then fixed in 2% paraformaldehyde and tdTomato fluorescence in cells was assessed via confocal microscopy."}, "[2]": {"test_system": "T. cruzi-infected THP-1 cells", "assay": "T. cruzi-infected THP-1 derived macrophages, confocal microscopy", "type": "cell-based, Trypanosoma cruzi", "conditions": "2 μM, 7 days", "experimental": "Macrophages derived by differentiation of THP-1 cells with phorbol myristate acetate were plated in confocal dishes (about 5,000 cells per dish) and incubated overnight at 37° C. Dishes were incubated with T. cruzi amastigotes and trypomastigotes expressing tdTomato (˜2×10^5 cells) for 24 hours at 37° C. Uninfected plates served as controls. After the 24-hour T. cruzi incubation period, parasites were removed, and medium was re-plated with DMEM/F12 culture media with 2 μM Compound 2 (or left untreated as a control) for 7 days at 37° C. Following fixation of cells in 4% paraformaldehyde, tdTomato fluorescence (which is indicative of viable T. cruzi) in cells was then assessed via confocal microscopy."}},
  "data": [
    {"smiles": "O=C(NO)C(c1ccccc1)c1c(-c2ccc3ccccc3c2)[nH]c2ccccc12", "note": "(centres unmarked) [Compound 2, N-hydroxy-2-(2-(naphthalen-2-yl)-1H-indol-3-yl)-2-phenylacetamide]", "values": [
      {"measurement": "T. cruzi infection in VERO cells", "setting": "[1]", "value": "eradication of T. cruzi infection"},
      {"measurement": "intracellular proliferation of T. cruzi", "setting": "[2]", "value": "prevented intracellular proliferation of T. cruzi"}
    ]}
  ]
}
